Reference: paper PMC4533833 (ACS chemical biology, 2015)
Like-named read-outs stand apart in the source and are kept apart here.

Legend:
V561M FGFR1 = assay: Intrinsic protein fluorescence quenching titration, V561M FGFR1; type: binding, Human; conditions: for fold decrease in affinity (increase in Kd) for V561M relative to WT FGFR1: Kd V561M FGFR1 versus Kd WT FGFR1
FGFR1 [1] = conditions: read-out: IC50 (cells); cited from earlier work
FGFR1 [2] = conditions: read-out: IC50 (enzyme); cited from earlier work

| Molecule | fold greater loss of affinity for E3810 compared to AZD4547 conferred by the V561M FGFR1 mutation (V561M FGFR1; E3810 versus AZD4547) | fold decrease in affinity (increase in Kd) for V561M relative to WT FGFR1 (V561M FGFR1) [fold] | IC50 (FGFR1 [1]) [nM] | IC50 (FGFR1 [2]) [nM] |
| --- | --- | --- | --- | --- |
| CNC(=O)c1cccc2cc(Oc3ccnc4cc(OCC5(N)CC5)c(OC)cc34)ccc12 [E3810] | over 150 fold | 5000 |  |  |
| AZD4547 |  | 32 | 12 | 0.2 |
